The source made the active and inactive calls. No cut-off for these calls is given here.
Key:
Quadruplex DNA [1] = settings: time 10.0 min
Quadruplex RNA [2] = settings: time 10.0 min
Quadruplex DNA [3] = settings: time 10.0 min; remark: listed apart in the source
Quadruplex RNA [4] = settings: time 10.0 min; remark: listed apart in the source
Quadruplex DNA [5] = settings: time 10.0 min; remark: listed apart in the source
Quadruplex DNA [6] = settings: time 10.0 min; remark: listed apart in the source
MCF7 [7] = assay: Cytotoxicity against human MCF7 cells assessed as reduction in cell viability incubated for 6 days by SRB assay; format: functional, cell-based; settings: Homo sapiens, MCF7, 144 h; for IC25: time 6 day, read-out: IC25
MCF7 [8] = assay: Effect on cell cycle arrest in human MCF7 cells at IC50 concentration incubated for 6 days by PI staining based flow cytometric analysis; format: functional; settings: time 6.0 day
MDA-MB-231 [9] = assay: Induction of DNA damage in human MDA-MB-231 cells assessed as increase in gamma-H2AX level at IC50 concentration incubated for 6 days by flow cytometric analysis; format: functional, cell-based; settings: time 6.0 day
MCF7 [10] = assay: Induction of DNA damage in human MCF7 cells assessed as increase in gamma-H2AX level at IC50 concentration incubated for 6 days by flow cytometric analysis; format: functional, cell-based; settings: time 6.0 day
MDA-MB-231 [11] = assay: Cytotoxicity against human MDA-MB-231 cells assessed as reduction in cell viability incubated for 6 days by SRB assay; format: functional, cell-based; settings: Homo sapiens, MDA-MB-231, 144 h
MCF7 [12] = assay: Effect on cell cycle arrest in human MCF7 cells at IC25 concentration incubated for 6 days by PI staining based flow cytometric analysis; format: functional; settings: time 6.0 day
MDA-MB-231 [13] = assay: Effect on cell cycle arrest in human MDA-MB-231 cells at IC25 concentration incubated for 6 days by PI staining based flow cytometric analysis; format: functional; settings: time 6.0 day
Quadruplex DNA [14] = assay: Stabilization of G4 quadruplex DNA (unknown origin) in human MDA-MB-231 cells assessed as increase in G4 motif at IC50 concentration incubated for 6 days by flow cytometric analysis; format: cell-based; settings: time 6.0 day
MDA-MB-231 [15] = assay: Cytotoxicity against human MDA-MB-231 cells assessed as reduction in cell viability at 20 uM incubated for 6 days by SRB assay; format: functional, cell-based; settings: time 6.0 day
SK-BR-3 = assay: Cytotoxicity against human SK-BR-3 cells assessed as reduction in cell viability at 20 uM incubated for 6 days by SRB assay; format: functional, cell-based; settings: time 6.0 day
MDA-MB-231 [16] = assay: Effect on cell cycle arrest in human MDA-MB-231 cells at IC50 concentration incubated for 6 days by PI staining based flow cytometric analysis; format: functional; settings: time 6.0 day
Quadruplex DNA [17] = assay: Stabilization of G4 quadruplex DNA (unknown origin) in human MCF7 cells at IC50 concentration incubated for 6 days by flow cytometric analysis; format: cell-based; settings: time 6.0 day
MCF7 [18] = assay: Cytotoxicity against human MCF7 cells assessed as reduction in cell viability at 0.625 to 20 uM incubated for 6 days by SRB assay; format: functional, cell-based; settings: dose 0.625-20 µM, time 6.0 day

deltaTm1/2 (Quadruplex DNA [1]) | deltaTm1/2 (Quadruplex RNA [2]) | deltaTm1/2 (Quadruplex DNA [3]) | deltaTm1/2 (Quadruplex RNA [4]) | deltaTm1/2 (Quadruplex DNA [5]) | deltaTm1/2 (Quadruplex DNA [6]) | SMILES | also measured
3 °C | 1 °C | 2.3 °C | 1.2 °C | 1 °C | 1.2 °C | Cn1nnc(-c2ccc(-c3ccc(N4C[C@H](CO)OC4=O)cc3F)cn2)n1 | 
9.5 °C | 7.5 °C | 9.4 °C | 3.5 °C | 4.4 °C | 3.9 °C | COc1cc(O)c(C(=O)Nc2nc(C(=O)NCCN(C(C)C)C(C)C)cs2)cc1OC | 
6.2 °C | 4.9 °C | 4 °C | 0.6 °C | 5.8 °C | 1.5 °C | CCc1cc2c(cc1CC)CC(NC[C@H](O)c1ccc(O)c3[nH]c(=O)ccc13)C2 [INDACATEROL] | IC50 (MCF7 [7]): 7.4 µM; IC25 (MCF7 [7]): 4.3 µM
2.5 °C | 4.6 °C | -1.1 °C | 1.1 °C | -3.3 °C | 0 °C | CCc1cc2c(cc1N1CCC(N3CCOCC3)CC1)C(C)(C)c1[nH]c3cc(C#N)ccc3c1C2=O | 
9.8 °C | 9.7 °C | 4.3 °C | -0.2 °C | 1.9 °C | 2.4 °C | CONC(=O)Nc1ccc(-c2sc3c(c2CN(C)C)c(=O)n(-c2ccc(OC)nn2)c(=O)n3Cc2c(F)cccc2F)cc1 | 
5.4 °C | 3.2 °C | 2.8 °C | 1 °C | 4.4 °C | 0.2 °C | CCCCOc1cc(C(=O)NCCN(CC)CC)c2ccccc2n1 | 
1.4 °C | 2.6 °C | -0.7 °C | -0.3 °C | 4.5 °C | -0.4 °C | COc1c(-c2ccc3cc(NS(C)(=O)=O)ccc3c2)cc(-n2ccc(=O)[nH]c2=O)cc1C(C)(C)C | 
17.1 °C | 9.6 °C | 8.1 °C | 2.3 °C | 5.3 °C | 7.7 °C | CN1CCCC(n2nc(Cc3ccc(Cl)cc3)c3ccccc3c2=O)CC1 (stereo unspecified) [AZELASTINE] | Activity (MCF7 [8]): inactive; Activity (MDA-MB-231 [9]): inactive; IC50 (MCF7 [7]): 10.3 µM; IC25 (MCF7 [7]): 5.8 µM; Activity (MCF7 [10]): Active; IC50 (MDA-MB-231 [11]): 8.2 µM; IC25 (MDA-MB-231 [11]; time 6 day, read-out: IC25): 5.2 µM; Activity (MCF7 [12]): inactive; Activity (MDA-MB-231 [13]): inactive; Activity (Quadruplex DNA [14]): Active; Activity (MDA-MB-231 [15]): Active; Activity (SK-BR-3): Active; Activity (MDA-MB-231 [16]): inactive; Activity (Quadruplex DNA [17]): Active
6 °C | 4.5 °C | 4 °C | 0.8 °C | 5.2 °C | 0.6 °C | CN1CCC[C@@H]1Cc1c[nH]c2ccc(CCS(=O)(=O)c3ccccc3)cc12 | Activity (MCF7 [18]): Active

From ChEMBL document CHEMBL6153050, “Repurposing FDA-approved drugs to target G-quadruplexes in breast cancer” (Eur J Med Chem, 2025)
